From the NIST ThermoML archive (doi:10.1016/j.jct.2005.06.015)

Columns and labels:
[1] = refractive index (Na D-line) (dimensionless); xn = mol fraction of the nth substance listed; settings: 101 kPa, Liquid, Standard Abbe refractometry
[2] = xn = mol fraction of the nth substance listed; settings: 101 kPa, Liquid
[3] = refractive index (Na D-line) (dimensionless); settings: 101.33 kPa, Liquid, Standard Abbe refractometry
[4] = 101 kPa, Liquid

ClC(Cl)C(Cl)Cl [1,1,2,2-tetrachloroethane] + CCCCCCO
Settings	mass density, [2] [kg/m3]	refractive index, [1]
293.15 K, x1 = 0.1003	886.07	1.4247
293.15 K, x1 = 0.2011	955.51	1.43135
293.15 K, x1 = 0.3006	1025.9	1.438
293.15 K, x1 = 0.4004	1098.46	1.44486
293.15 K, x1 = 0.5	1173.27	1.45201
293.15 K, x1 = 0.6009	1251.57	1.45957
293.15 K, x1 = 0.7002	1331.64	1.46735
293.15 K, x1 = 0.8004	1415.64	1.47556
293.15 K, x1 = 0.9011	1503.8	1.48444
293.15 K, x1 = 1	1594.27	1.49387
303.15 K, x1 = 0.1003	877.89	1.42076
303.15 K, x1 = 0.2011	946.24	1.42723
303.15 K, x1 = 0.3006	1015.59	1.43378
303.15 K, x1 = 0.4004	1087.1	1.4405
303.15 K, x1 = 0.5	1160.79	1.4475
303.15 K, x1 = 0.6009	1237.85	1.45495
303.15 K, x1 = 0.7002	1316.58	1.46264
303.15 K, x1 = 0.8004	1399.12	1.47082
303.15 K, x1 = 0.9011	1485.78	1.4796
303.15 K, x1 = 1	1574.85	1.48887

ClC(Cl)C(Cl)Cl [1,1,2,2-tetrachloroethane] + CCCCCO
Settings	mass density, [2] [kg/m3]	refractive index, [1]
293.15 K, x1 = 0.1015	892.95	1.41801
293.15 K, x1 = 0.2006	969.17	1.42587
293.15 K, x1 = 0.3019	1046.97	1.43392
293.15 K, x1 = 0.4001	1122.53	1.44184
293.15 K, x1 = 0.5005	1199.96	1.45
293.15 K, x1 = 0.5995	1276.74	1.45825
293.15 K, x1 = 0.7005	1355.55	1.46691
293.15 K, x1 = 0.8008	1434.56	1.4757
293.15 K, x1 = 0.9001	1513.69	1.48463
293.15 K, x1 = 1	1594.27	1.49387
303.15 K, x1 = 0.1015	884.5	1.41395
303.15 K, x1 = 0.2006	959.53	1.42166
303.15 K, x1 = 0.3019	1036.17	1.42959
303.15 K, x1 = 0.4001	1110.64	1.43735
303.15 K, x1 = 0.5005	1186.94	1.44547
303.15 K, x1 = 0.5995	1262.57	1.45363
303.15 K, x1 = 0.7005	1340.1	1.46218
303.15 K, x1 = 0.8008	1417.76	1.47093
303.15 K, x1 = 0.9001	1495.54	1.47979
303.15 K, x1 = 1	1574.85	1.48887

CCCCCCCCCCO [decan-1-ol]
Settings	mass density, [4] [kg/m3]	refractive index, [3]
293.15 K	829.84	1.43694
303.15 K	822.83	1.43364

CCCCCCCCCCO [decan-1-ol] + ClC(Cl)C(Cl)Cl
x2 = 0
Settings	mass density, [2] [kg/m3]	refractive index, [1]
293.15 K	829.84	1.43694
303.15 K	822.83	1.43364

CCCCCCCO [heptan-1-ol]
Settings	mass density, [4] [kg/m3]	refractive index, [3]
293.15 K	822.14	1.42397
303.15 K	815.41	1.42047

CCCCCCCO [heptan-1-ol] + ClC(Cl)C(Cl)Cl
x2 = 0
Settings	mass density, [2] [kg/m3]	refractive index, [1]
293.15 K	822.14	1.42397
303.15 K	815.41	1.42047

CCCCCCO [hexan-1-ol]
Settings	mass density, [4] [kg/m3]	refractive index, [3]
293.15 K	818.72	1.41807
303.15 K	811.73	1.41423

CCCCCCO [hexan-1-ol] + ClC(Cl)C(Cl)Cl
x2 = 0
Settings	mass density, [2] [kg/m3]	refractive index, [1]
293.15 K	818.72	1.41807
303.15 K	811.73	1.41423

CCCCCCCCO [octan-1-ol]
Settings	mass density, [4] [kg/m3]	refractive index, [3]
293.15 K	825	1.42941
303.15 K	818.09	1.42563

CCCCCCCCO [octan-1-ol] + ClC(Cl)C(Cl)Cl
x2 = 0
Settings	mass density, [2] [kg/m3]	refractive index, [1]
293.15 K	825	1.42941
303.15 K	818.09	1.42563

CCCCCO [pentan-1-ol]
Settings	mass density, [4] [kg/m3]	refractive index, [3]
293.15 K	814.72	1.40976
303.15 K	807.6	1.40592

CCCCCO [pentan-1-ol] + ClC(Cl)C(Cl)Cl
x2 = 0
Settings	mass density, [2] [kg/m3]	refractive index, [1]
293.15 K	814.72	1.40976
303.15 K	807.6	1.40592
